Where two headings read alike, the source gives them in different places.
Key:
[1] = Rat liver microsomes stability test; type: in vitro ADME; settings: for Remaining percentage: rat liver microsomes, average value; for CLint scaled at 1 µM / half-life at 1 µM: rat, liver microsomes, pH 7.4, rat liver microsomes
Experimental: Firstly, preheated 0.1 M potassium phosphate buffer with 5 mM MgCl2 (i.e. K/Mg buffer) at pH 7.4±0.1. Prepared the spiked solution for the tested compound and reference compound (500 μM spiked solution: added 5 μL of 10 mM stock solution into 95 μL of acetonitrile; 1.5 μM microsomal spiked solution (0.75 mg/mL): added 1.5 μL of 500 μM spiked solution and 18.75 μL of 20 mg/mL liver microsomes into 479.75 μL of K/Mg buffer). Then NADPH was dissolved in buffer K to prepare a 6 mM, 5 mg/mL NADPH stock solution. At different time points (0-, 5-, 15-, 30-, 45 minutes), 30 μL of 1.5 μM spiked solution containing 0.75 mg/mL of microsome solution was distributed onto the designated detection plate. At 0 min, 150 μL of acetonitrile containing internal standard (IS) was added to the 0 min plate well, followed by 15 μL of NADPH stock solution (6 mM). Then, all plates were pre-incubated at 37° C. for 5 minutes, added 15 μL of NADPH stock solution (6 mM), the reaction was initiated and timed. At 5 minutes, 15 minutes, 30 minutes, and 45 minutes, added 150 μL of acetonitrile solution containing IS to the corresponding wells to stop the reaction. After quenching, the plate was shaken for 10 minutes (600 rpm/min), followed by centrifugation at 6000 rpm/min for 15 minutes. 80 μL of supernatant of each well were transferred into a 96-well sample plate containing 140 μL of ultrapure water to perform LC/MS analysis. The analysis of biological samples and all samples were completed by the analysis laboratory of Medicipia Pharmaceutical Technology (Shanghai) Co., Ltd.

JAK3 = JAK3 (Homo sapiens (Human), UniProt P52333); assay: Z′-Lyte kinase inhibitory activity test; type: biochemical
Chain of JAK3 (P52333 whole entry): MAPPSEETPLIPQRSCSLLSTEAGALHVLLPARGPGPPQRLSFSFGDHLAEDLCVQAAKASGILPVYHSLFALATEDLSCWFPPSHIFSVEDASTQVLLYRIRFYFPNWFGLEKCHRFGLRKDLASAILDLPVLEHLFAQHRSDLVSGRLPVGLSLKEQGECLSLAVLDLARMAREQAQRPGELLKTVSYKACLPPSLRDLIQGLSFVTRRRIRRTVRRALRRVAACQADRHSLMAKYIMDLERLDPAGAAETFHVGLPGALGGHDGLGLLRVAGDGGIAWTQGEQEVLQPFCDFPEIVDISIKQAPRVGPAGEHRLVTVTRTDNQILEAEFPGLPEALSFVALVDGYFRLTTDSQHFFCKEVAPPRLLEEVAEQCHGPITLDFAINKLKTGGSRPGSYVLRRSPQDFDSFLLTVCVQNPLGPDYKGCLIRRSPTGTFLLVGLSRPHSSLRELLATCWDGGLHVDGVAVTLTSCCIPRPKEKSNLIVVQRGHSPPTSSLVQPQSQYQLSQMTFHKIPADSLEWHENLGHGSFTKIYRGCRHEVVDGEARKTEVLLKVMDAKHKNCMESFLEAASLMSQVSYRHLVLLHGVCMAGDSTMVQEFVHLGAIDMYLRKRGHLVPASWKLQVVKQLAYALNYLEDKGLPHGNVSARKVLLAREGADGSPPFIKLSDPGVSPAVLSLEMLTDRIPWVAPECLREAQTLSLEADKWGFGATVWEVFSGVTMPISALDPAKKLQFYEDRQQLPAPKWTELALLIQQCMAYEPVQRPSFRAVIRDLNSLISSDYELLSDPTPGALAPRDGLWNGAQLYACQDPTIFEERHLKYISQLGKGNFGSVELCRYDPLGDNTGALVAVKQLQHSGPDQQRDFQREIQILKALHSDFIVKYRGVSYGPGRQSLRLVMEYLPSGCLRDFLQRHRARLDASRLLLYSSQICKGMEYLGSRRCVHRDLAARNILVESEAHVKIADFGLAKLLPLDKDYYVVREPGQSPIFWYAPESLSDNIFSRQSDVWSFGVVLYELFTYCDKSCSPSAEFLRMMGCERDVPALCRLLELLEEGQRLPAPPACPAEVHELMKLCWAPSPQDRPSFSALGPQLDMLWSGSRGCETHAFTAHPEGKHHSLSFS
Outline: (§1)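 Compounds (10 μM top final, 3-fold, 10 points, duplicate wells) were incubated with titrated kinase, ATP and 2 μM peptide at 30 °C for 1.5 h in HEPES pH 7.5/MgCl2/EGTA/Brij-35 buffer. Development followed for 1 h; phosphorylation ratio gave kinase inhibition, experiments repeated at least thrice.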

TYK2 = TYK2 (Homo sapiens (Human), UniProt P29597); assay: Z′-Lyte kinase inhibitory activity test; type: biochemical; settings: ATP concentration Km
Chain of TYK2 (P29597 whole entry): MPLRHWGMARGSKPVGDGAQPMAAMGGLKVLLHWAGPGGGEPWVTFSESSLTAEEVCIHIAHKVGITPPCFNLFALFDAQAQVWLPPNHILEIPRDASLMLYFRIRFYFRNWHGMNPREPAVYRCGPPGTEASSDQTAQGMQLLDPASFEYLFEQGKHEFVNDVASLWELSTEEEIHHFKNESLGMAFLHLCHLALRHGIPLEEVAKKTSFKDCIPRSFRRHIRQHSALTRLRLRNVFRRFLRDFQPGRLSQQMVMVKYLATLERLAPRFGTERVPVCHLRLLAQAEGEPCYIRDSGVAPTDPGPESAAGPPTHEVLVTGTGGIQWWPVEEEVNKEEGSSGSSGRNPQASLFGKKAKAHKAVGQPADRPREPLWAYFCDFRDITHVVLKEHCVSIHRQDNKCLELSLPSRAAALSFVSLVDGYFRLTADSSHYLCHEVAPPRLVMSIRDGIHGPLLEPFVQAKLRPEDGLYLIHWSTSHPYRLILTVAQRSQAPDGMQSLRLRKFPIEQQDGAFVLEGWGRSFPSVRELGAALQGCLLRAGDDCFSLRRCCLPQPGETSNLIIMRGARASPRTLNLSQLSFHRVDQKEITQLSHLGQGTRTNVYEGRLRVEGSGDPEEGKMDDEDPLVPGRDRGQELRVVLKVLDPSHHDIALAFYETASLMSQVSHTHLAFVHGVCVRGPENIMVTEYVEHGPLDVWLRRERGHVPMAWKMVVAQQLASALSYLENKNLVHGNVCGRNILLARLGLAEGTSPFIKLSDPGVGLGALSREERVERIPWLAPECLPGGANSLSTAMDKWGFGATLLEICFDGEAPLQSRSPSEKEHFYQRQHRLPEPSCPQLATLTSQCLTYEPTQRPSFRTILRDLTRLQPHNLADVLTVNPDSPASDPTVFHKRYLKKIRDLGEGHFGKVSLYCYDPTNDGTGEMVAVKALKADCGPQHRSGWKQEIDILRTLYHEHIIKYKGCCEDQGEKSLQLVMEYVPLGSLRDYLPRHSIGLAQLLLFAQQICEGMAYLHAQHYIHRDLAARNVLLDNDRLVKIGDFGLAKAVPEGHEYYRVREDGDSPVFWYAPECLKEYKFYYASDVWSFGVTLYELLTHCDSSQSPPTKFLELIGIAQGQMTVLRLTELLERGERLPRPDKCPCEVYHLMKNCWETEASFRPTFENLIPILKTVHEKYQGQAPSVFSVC
Outline: as §1

JAK2 = JAK2 (Homo sapiens (Human), UniProt O60674); assay: Z′-Lyte kinase inhibitory activity test; type: biochemical; settings: ATP concentration Km
Chain of JAK2 (O60674 whole entry): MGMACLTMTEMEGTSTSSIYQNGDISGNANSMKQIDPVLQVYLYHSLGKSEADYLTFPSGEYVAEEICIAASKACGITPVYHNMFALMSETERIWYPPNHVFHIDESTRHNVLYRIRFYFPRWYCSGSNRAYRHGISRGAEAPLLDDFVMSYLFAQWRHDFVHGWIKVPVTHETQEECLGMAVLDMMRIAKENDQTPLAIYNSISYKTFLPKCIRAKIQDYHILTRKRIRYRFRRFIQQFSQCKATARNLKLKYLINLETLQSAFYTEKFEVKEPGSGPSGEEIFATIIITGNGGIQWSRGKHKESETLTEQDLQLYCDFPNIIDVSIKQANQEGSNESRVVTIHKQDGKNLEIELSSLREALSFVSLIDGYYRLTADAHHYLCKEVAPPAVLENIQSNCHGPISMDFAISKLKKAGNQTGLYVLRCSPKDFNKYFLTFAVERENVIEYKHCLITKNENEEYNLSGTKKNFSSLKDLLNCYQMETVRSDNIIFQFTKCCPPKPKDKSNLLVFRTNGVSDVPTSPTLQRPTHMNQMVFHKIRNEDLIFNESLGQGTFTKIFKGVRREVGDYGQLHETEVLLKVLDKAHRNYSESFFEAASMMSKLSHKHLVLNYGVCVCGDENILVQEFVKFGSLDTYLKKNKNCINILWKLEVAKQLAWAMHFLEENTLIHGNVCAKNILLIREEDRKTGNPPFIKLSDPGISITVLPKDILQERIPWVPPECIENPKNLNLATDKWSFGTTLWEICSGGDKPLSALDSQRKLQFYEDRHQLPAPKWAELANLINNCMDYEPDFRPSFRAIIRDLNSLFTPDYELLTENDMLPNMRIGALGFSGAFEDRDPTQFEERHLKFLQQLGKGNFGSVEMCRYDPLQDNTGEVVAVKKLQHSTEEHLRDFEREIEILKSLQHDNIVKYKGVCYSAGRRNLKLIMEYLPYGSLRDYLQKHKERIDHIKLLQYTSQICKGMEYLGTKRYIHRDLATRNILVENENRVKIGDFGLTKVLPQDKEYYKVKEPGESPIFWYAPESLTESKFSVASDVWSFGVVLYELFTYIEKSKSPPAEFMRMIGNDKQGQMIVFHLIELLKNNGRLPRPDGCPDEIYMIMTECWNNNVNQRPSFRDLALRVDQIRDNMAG
Outline: as §1

JAK1 = JAK1 (Homo sapiens (Human), UniProt P23458); assay: Z′-Lyte kinase inhibitory activity test; type: biochemical; settings: ATP concentration Km
Chain of JAK1 (P23458 whole entry): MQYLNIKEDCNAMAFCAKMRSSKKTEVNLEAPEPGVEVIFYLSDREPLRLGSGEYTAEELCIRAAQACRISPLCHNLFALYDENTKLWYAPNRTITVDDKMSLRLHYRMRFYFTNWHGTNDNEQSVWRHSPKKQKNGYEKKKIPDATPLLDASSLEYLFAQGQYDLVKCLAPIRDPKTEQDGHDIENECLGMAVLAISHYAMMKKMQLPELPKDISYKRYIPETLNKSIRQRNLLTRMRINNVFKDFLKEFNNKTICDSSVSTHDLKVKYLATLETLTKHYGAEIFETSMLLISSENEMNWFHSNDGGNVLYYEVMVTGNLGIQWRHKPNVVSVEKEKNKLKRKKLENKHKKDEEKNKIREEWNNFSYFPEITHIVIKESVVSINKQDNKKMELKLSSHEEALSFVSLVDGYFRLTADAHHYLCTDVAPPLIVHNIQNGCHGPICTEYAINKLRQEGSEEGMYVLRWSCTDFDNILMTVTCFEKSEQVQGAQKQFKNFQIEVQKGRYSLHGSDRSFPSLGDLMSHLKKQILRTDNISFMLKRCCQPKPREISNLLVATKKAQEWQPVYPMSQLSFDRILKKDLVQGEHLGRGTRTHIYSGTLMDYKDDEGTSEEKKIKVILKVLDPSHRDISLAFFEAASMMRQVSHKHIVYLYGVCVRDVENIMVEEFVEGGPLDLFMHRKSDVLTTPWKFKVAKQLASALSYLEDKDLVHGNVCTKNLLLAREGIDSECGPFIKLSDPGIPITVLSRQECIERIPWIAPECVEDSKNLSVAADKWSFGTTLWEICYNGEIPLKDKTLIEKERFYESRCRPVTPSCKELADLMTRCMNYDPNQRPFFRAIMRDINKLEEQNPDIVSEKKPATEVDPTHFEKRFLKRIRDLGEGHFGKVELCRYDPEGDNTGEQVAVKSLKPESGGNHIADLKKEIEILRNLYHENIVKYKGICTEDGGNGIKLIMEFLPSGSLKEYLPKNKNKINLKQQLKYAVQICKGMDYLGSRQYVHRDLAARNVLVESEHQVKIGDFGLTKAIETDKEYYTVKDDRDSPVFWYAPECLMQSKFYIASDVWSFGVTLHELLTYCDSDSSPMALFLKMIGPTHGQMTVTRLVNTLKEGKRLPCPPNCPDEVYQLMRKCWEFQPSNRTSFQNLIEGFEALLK
Outline: as §1

[2] = In vivo pharmacokinetic properties in rats; parameters: species or system SD rats; settings: rat
Experimental: Species: SD rats, SPF grade.
Number of rats: 3 in each group, male.
The animals in the oral administration group were fasted overnight (10-14 hours) before administration, and were fed 4 hours after administration. The animals were weighed before administration, and the dosage was calculated based on body weight. The drug was administered intravenously (iv, 5 mg/kg) or orally by gavage (po, 15 mg/kg). Blood was collected from jugular vein at 0.083 h, 0.25 h, 0.5 h, 1 h, 2 h, 4 h, 6 h, and 8 h after administration. About 0.20 mL of each sample was collected, anticoagulated with heparin sodium, placed on ice after collection, and centrifuged to separate plasma within 1 hour (centrifugation condition: 6800 g, 6 minutes, 2-8° C.). Plasma samples were stored in a −80° C. freezer until analysis. […] Pharmacokinetic parameters were calculated using Phoenix WinNonlin7.0 based on the blood drug concentration data at different time points, providing the pharmacokinetic parameters and their average values, and standard deviations.

[3] = test system: human acute myeloid leukemia cell line U937; assay: CCK-8 in vitro proliferation inhibition; type: cell-based; settings: Homo sapiens, U-937, 72 hours, read-out: Inhibitory activity (IC50) on cell proliferation, U937
[4] = test system: human chronic myeloid leukemia cell line K562; assay: CCK-8 in vitro proliferation inhibition; type: cell-based; settings: Homo sapiens, K562, 72 hours, read-out: Inhibitory activity (IC50) on cell proliferation, K562

In the case of `C=CC(=O)Nc1cc(Nc2ncc(Cl)c(O[C@@H]3CO[C@H]4[C@@H]3OC[C@H]4OC)n2)ccc1N(C)CCN(C)C` [LS 6-45], the Remaining percentage ([1]; 0 min) is reported as 100.00%, the Remaining percentage ([1]; 5 min) is reported as 95.76% and the Remaining percentage ([1]; 15 min) is reported as 90.38%. It also gave a Remaining percentage ([1]; 30 min) of 87.93%, a Remaining percentage ([1]; 45 min) of 79.61% and a CLint scaled at 1 µM ([1]; calculated value below the 20.70 limit, read-out: Clint (value in parentheses)) of 16.6 mL/min/kg. The half-life at 1 µM ([1]; calculated value beyond the 120 min limit, read-out: T1/2 (value in parentheses)) was 2.5 h, the CLint scaled at 1 µM ([1]; read-out: Clint) was less than 20.7 mL/min/kg and the half-life at 1 µM ([1]; read-out: T1/2) was greater than 2 h. The IC50 (JAK3; ATP concentration 1 mM) was 1.53 nM, the IC50 (JAK3; ATP concentration Km) was 1.25 nM and the IC50 (TYK2) was 1080 nM. It also gave an IC50 (JAK2) of 2040 nM, an IC50 (JAK1) of 13000 nM and a clearance ([2]; male, SD, plasma, iv 5 mg/kg) of 155 ± 2.83 mL/min/kg. The “AUC(0-∞)” value ([2]; iv 5 mg/kg) was 536.99 ± 9.89 ng·h/mL, the Cmax ([2]; iv 5 mg/kg) was 911.33 ± 139.73 ng/mL and the “AUC(0-∞)” value ([2]; po 15 mg/kg) was 333.50 ± 45.52 ng·h/mL. The Cmax ([2]; po 15 mg/kg) was 238.28 ± 13.68 ng/mL, the “F (oral availability)” value ([2]; po 15 mg/kg) was 20.66 ± 2.83% and the “F (oral availability)” value ([2]; po 15 mg/kg, listed as LS6-45) was 20.66%. For the same compound, the IC50 [3] was 20.2 nM and the IC50 [4] was 335 nM.

Reference: patent US20230348487A1, “2-AMINOPYRIMIDINE COMPOUND AND PHARMACEUTICAL COMPOSITION THEREOF AND APPLICATION THEREOF” (GUANGZHOU SALUSTIER BIOSCIENCES CO., LTD., priority 2021, published 2023)
